In this assay the target is T1, Human Cav2.2 channels (Homo sapiens, UniProt Q00975).
T1 construct: expressed in transfected cells
In words: Fluorescent assay for Cav2.2 channels using potassium depolarization to initiate channel opening. The class given is cell-based. The note with it: for inhibition at 10 µM: 10 μM compound, read-out: Cav 2.2 Activity % Inh at 10 μM; for inhibition at 30 µM: 30 μM compound, read-out: Cav 2.2 Activity % Inh at 30 μM; for IC50: 30 mM K (block of open and inactivated channels), read-out: Cav 2.2 Activity IC50 at 30 mM K. The source says:
Human Cav2.2 channels were stably expressed in HEK293 cells along with alpha2-delta and beta subunits of voltage-gated calcium channels. An inwardly rectifying potassium channel (Kir2.3) was also expressed in these cells to allow more precise control of the cell membrane potential by extracellular potassium concentration. At low bath potassium concentration, the membrane potential is relatively negative, and is depolarized as the bath potassium concentration is raised. In this way, the bath potassium concentration can be used to regulate the voltage-dependent conformations of the channels. […] After the incubation period, Cav2.2 channel opening is triggered by addition of higher concentration of potassium (70 mM final concentration) to further depolarize the cell. The degree of state-dependent block can be estimated from the inhibitory potency of compounds after incubation in different potassium concentrations.
Calcium influx through Cav2.2 channels is determined using a calcium sensitive fluorescent dye in combination with a fluorescent plate reader. Fluorescent changes were measured with either a VIPR (Aurora Instruments) or FLIPR (Molecular Devices) plate reader.
• 1. Seed cells in Poly-D-Lysine Coated 96 or 384-well plate and keep in a 37° C.-10% CO2 incubator overnight • 2. […] Incubate in the dark at 25° C. for 60-70 min • 5. Remove dye, wash cells with 0.1 mL (96-well plate) or 0.06 mL (384-well plate) of 4, 12, 25, or 30 mM Potassium Pre-polarization Buffer (PPB) • 6. […] Incubate in the dark at 25° C. for 30 min • 8. Read cell plate on VIPR instrument, Excitation=480 nm, Emission=535 nm • 9. With VIPR continuously reading, add 0.1 mL (96-well plate) or 0.03 mL (384-well plate) of Depolarization Buffer (DB), which is 2× the final assay concentration, to the cell plate.

T1 sequence (Q00975 whole entry): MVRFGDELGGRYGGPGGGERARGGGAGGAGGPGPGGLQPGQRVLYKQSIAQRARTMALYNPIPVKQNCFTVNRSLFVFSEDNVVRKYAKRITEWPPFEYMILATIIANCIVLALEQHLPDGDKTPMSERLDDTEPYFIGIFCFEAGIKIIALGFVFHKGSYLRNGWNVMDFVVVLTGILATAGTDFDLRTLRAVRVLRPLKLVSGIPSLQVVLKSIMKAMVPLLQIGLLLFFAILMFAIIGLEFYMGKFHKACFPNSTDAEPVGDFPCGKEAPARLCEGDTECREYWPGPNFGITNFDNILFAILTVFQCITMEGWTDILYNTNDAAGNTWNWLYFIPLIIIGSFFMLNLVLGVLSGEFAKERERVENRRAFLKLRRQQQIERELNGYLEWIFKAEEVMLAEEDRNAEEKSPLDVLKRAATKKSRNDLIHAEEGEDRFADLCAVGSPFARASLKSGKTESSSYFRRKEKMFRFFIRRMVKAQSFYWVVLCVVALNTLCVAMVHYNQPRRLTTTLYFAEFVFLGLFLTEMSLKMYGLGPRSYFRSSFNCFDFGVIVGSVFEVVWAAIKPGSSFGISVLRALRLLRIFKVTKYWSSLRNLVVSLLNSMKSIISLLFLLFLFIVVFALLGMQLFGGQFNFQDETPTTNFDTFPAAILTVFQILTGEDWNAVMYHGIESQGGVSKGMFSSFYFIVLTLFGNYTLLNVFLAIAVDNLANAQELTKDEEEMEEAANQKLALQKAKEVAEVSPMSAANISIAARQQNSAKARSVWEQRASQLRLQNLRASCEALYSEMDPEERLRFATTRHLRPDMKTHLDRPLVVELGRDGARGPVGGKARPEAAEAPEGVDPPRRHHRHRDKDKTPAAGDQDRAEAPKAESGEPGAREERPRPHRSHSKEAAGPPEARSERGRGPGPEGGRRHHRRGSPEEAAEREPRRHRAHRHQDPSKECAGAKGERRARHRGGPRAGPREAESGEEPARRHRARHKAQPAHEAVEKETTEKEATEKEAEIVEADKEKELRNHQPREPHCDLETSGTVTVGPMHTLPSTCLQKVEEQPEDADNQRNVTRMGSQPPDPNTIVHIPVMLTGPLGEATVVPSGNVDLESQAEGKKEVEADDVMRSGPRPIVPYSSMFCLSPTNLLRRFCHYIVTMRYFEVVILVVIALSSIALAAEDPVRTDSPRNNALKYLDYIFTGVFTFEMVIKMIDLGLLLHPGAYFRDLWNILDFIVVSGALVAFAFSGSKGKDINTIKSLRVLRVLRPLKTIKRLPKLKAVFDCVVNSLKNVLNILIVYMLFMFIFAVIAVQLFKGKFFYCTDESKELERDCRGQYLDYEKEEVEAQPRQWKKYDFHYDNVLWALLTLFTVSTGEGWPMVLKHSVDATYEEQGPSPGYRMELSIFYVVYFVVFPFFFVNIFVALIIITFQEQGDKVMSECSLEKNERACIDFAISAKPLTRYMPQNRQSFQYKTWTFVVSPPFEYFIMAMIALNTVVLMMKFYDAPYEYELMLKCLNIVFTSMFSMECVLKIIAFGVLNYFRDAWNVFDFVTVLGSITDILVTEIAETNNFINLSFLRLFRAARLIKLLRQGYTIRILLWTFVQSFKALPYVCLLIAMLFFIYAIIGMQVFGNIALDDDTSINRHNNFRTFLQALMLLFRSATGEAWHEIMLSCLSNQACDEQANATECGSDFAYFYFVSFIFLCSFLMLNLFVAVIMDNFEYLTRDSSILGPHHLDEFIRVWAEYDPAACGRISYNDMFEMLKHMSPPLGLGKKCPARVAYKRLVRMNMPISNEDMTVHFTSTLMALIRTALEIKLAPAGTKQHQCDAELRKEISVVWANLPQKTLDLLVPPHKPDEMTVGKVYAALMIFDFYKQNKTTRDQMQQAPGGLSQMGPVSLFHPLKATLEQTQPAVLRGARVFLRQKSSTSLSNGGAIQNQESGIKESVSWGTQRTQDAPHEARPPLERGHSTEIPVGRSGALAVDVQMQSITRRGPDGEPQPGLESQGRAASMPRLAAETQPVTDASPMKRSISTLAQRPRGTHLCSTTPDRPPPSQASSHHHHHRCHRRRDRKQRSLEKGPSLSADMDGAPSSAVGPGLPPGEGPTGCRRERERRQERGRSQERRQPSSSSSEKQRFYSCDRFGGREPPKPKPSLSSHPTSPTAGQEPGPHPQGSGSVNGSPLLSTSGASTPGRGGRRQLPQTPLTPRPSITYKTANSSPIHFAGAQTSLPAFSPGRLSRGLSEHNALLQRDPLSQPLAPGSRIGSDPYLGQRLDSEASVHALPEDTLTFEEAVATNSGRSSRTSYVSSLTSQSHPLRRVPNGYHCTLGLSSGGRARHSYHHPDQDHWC
T1 sequence (P54289 25-1103 partner): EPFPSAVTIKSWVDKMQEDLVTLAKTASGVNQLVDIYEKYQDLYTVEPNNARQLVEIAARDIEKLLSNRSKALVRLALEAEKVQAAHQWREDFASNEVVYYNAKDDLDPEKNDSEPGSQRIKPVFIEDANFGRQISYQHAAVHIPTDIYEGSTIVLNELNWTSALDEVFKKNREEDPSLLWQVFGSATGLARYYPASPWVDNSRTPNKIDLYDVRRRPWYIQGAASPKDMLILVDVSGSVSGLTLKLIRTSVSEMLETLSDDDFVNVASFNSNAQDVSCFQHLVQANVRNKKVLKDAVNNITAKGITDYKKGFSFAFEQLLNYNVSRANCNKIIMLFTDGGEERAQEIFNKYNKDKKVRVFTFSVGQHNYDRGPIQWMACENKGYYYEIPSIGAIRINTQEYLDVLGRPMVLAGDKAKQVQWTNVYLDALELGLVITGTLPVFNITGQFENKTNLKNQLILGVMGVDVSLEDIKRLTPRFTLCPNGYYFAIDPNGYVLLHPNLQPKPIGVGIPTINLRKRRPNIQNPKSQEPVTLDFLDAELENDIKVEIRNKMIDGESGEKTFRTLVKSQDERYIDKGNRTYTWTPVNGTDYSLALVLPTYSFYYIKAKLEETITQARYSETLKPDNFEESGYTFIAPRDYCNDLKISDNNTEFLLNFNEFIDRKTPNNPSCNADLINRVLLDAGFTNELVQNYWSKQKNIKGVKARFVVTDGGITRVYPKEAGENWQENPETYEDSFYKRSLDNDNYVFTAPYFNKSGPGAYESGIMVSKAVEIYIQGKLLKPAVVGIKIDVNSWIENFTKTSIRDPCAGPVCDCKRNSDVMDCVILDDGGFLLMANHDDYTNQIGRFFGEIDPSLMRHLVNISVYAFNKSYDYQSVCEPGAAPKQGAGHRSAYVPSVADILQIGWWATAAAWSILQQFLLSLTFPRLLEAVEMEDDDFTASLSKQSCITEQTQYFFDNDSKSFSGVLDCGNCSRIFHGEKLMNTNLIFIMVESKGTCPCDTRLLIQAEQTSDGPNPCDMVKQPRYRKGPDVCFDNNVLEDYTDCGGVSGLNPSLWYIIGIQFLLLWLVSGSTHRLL
T1 sequence (P54284 whole entry partner): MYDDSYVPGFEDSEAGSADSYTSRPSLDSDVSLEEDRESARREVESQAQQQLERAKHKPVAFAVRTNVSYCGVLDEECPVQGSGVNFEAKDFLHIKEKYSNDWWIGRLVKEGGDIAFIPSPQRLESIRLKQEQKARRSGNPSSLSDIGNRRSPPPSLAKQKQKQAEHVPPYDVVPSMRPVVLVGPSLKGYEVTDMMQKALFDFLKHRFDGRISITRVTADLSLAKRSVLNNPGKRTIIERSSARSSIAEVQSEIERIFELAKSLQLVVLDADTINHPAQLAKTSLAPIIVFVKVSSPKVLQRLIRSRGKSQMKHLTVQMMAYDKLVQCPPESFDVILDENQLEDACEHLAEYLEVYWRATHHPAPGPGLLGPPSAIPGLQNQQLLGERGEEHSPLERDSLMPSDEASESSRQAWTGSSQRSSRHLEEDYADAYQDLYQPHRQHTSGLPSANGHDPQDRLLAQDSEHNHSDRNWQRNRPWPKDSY

With `COc1c(C(C)(C)C)cc(C(=O)NC2(C(=O)NCc3cc(C)on3)CCCCC2)cc1C(C)(C)C` [Compound 86, 3,5-di-tert-butyl-4-methoxy-N-(1-((5-methylisoxazol-3-yl)methylcarbamoyl)cyclohexyl)benzamide], the inhibition at 10 µM stood at 99.1%, the inhibition at 30 µM worked out at 104% and the IC50 is 9.57 nM.

With `COc1c(C(C)(C)C)cc(C(=O)NC2(C(=O)NCc3ccccc3)CCCCC2)cc1C(C)(C)C` [Compound 32, N-(1-(benzylcarbamoyl)cyclohexyl)-3,5-di-tert-butyl-4-methoxybenzamide], the inhibition at 10 µM stood at 88.8%, the inhibition at 30 µM stood at 98% and the IC50 worked out at 5.6 nM.

With `CC(C)(C)NC(=O)C(C)(C)c1ccc(C(=O)NC2(C(=O)NCc3cccc(C(F)(F)F)c3)CCCCC2)cc1` [Compound 126, 4-(1-(tert-butylamino)-2-methyl-1-oxopropan-2-yl)-N-(1-(3-(trifluoromethyl)benzylcarbamoyl)cyclohexyl)benzamide], the inhibition at 10 µM is 102%, the inhibition at 30 µM worked out at 104% and the IC50 was 273 nM.

Turning to `COc1c(C(C)(C)C)cc(C(=O)NC2(C(=O)N3CCN(Cc4ccccc4)CC3)CCCCC2)cc1C(C)(C)C` [Compound 83, N-(1-(4-benzylpiperazine-1-carbonyl)cyclohexyl)-3,5-di-tert-butyl-4-methoxybenzamide], the inhibition at 10 µM was 97.2%, the inhibition at 30 µM came to 100% and the IC50 was 134 nM.

As for `CC(C)(C#N)c1cc(C(=O)NC2(C(=O)NCc3ccccc3)CCCCC2)cc(C(C)(C)C#N)c1` [Compound 41, N-(1-(benzylcarbamoyl)cyclohexyl)-3,5-bis(2-cyanopropan-2-yl)benzamide], the inhibition at 10 µM worked out at 76%, the inhibition at 30 µM was found to be 73.3% and the IC50 was found to be 985 nM.

For `CC(C)(C)c1cc(C(=O)NC2(C(=O)NCCCN3CCOCC3)CCCCC2)cc(C(C)(C)C)c1` [Compound 102, 3,5-di-tert-butyl-N-(1-(3-morpholinopropylcarbamoyl)cyclohexyl)benzamide], the IC50 is 253 nM.

For the molecule `COc1ccc(CNC(=O)C2(NC(=O)c3cc(C(C)(C)C)c(OC)c(C(C)(C)C)c3)CCCCC2)cc1` [Compound 31, 3,5-di-tert-butyl-4-methoxy-N-(1-(4-methoxybenzylcarbamoyl)cyclohexyl)benzamide], the inhibition at 10 µM was determined as 87.5%, the inhibition at 30 µM turned out to be 105% and the IC50 worked out at 2.6 nM.

Turning to `COc1c(C(C)(C)C)cc(C(=O)NC2(C(=O)NCc3cccc(C(F)(F)F)c3)CCCCC2)cc1C(C)(C)C` [Compound 33, 3,5-di-tert-butyl-4-methoxy-N-(1-(3-(trifluoromethyl)benzylcarbamoyl)cyclohexyl)benzamide], the inhibition at 10 µM worked out at 81.4%, the inhibition at 30 µM came out at 90.5% and the IC50 came out at 37.6 nM.

`CNC(=O)C1(NC(=O)c2cc(C(C)(C)C)c(OC)c(C(C)(C)C)c2)CCCCC1` [Compound 28, 3,5-di-tert-butyl-4-methoxy-N-(1-(methylcarbamoyl)cyclohexyl)benzamide]: the inhibition at 10 µM was found to be 82.6%, the inhibition at 30 µM was 89.4% and the IC50 was 69.3 nM.

In the case of `COc1c(C(C)(C)C)cc(C(=O)NC2(C(=O)NCc3ccc(N(C)C)cc3)CCCCC2)cc1C(C)(C)C` [Compound 84, 3,5-di-tert-butyl-N-(1-(4-(dimethylamino)benzylcarbamoyl)cyclohexyl)-4-methoxybenzamide], the inhibition at 10 µM is 25.6% and the inhibition at 30 µM was found to be 53.5%.

As to `CN(C)c1cccc(CNC(=O)C2(NC(=O)c3cc(C(C)(C)C)nc(C(C)(C)C)c3)CCOCC2)c1` [Compound 25, 2,6-di-tert-butyl-N-(4-(3-(dimethylamino)benzylcarbamoyl)tetrahydro-2H-pyran-4-yl)isonicotinamide], the inhibition at 10 µM was found to be 70.5% and the IC50 is 87.4 nM.

Consider `Cc1cnc(CNC(=O)C2(NC(=O)c3cc(C(C)(C)C)c(O)c(C(C)(C)C)c3)CC2)cn1` [Compound 3, 3,5-di-tert-butyl-4-hydroxy-N-(1-((5-methylpyrazin-2-yl)methylcarbamoyl)cyclopropyl)benzamide], for which the inhibition at 10 µM worked out at 89.8%, the inhibition at 30 µM amounted to 98.8% and the IC50 turned out to be 1620 nM.

On to `COc1ccc(CNC(=O)C2(NC(=O)c3cc(C(C)(C)C)c(OC)c(C(C)(C)C)c3)CC2)cc1` [Compound 110, 3,5-di-tert-butyl-4-methoxy-N-(1-(4-methoxybenzylcarbamoyl)cyclopropyl)benzamide], for which the inhibition at 10 µM worked out at 100%, the inhibition at 30 µM was found to be 101% and the half-maximal inhibitory concentration (IC50) came out at 121 nM.

With `Cc1cc(CNC(=O)C2(NC(=O)c3cc(C(C)(C)C)c(O)c(C(C)(C)C)c3)CCCCC2)no1` [Compound 12, 3,5-di-tert-butyl-4-hydroxy-N-(1-((5-methylisoxazol-3-yl)methylcarbamoyl)cyclohexyl)benzamide], the inhibition at 10 µM was found to be 98.6%, the inhibition at 30 µM was found to be 101% and the IC50 was 55 nM.

As to `COc1c(C(C)(C)C)cc(C(=O)NC2(C(=O)NCc3ccc(S(C)(=O)=O)cc3)CCCCC2)cc1C(C)(C)C` [Compound 108, 3,5-di-tert-butyl-4-methoxy-N-(1-(4-(methylsulfonyl)benzylcarbamoyl)cyclohexyl)benzamide], the IC50 came out at 81.6 nM.

Consider `N#CCc1cc(CC#N)cc(C(=O)NC2(C(=O)NCc3cccc(C(F)(F)F)c3)CCCCC2)c1` [Compound 61, 3,5-bis(cyanomethyl)-N-(1-(3-(trifluoromethyl)benzylcarbamoyl)cyclohexyl)benzamide], for which the inhibition at 10 µM was 18.7% and the inhibition at 30 µM is 56.4%.

As to `Cc1cnc(CNC(=O)C2(NC(=O)c3cc(C(C)(C)C)nc(C(C)(C)C)c3)CC2)cn1` [Compound 11, 2,6-di-tert-butyl-N-(1-((5-methylpyrazin-2-yl)methylcarbamoyl)cyclopropyl)isonicotinamide], the inhibition at 10 µM was determined as 91.9%, the inhibition at 30 µM stood at 92.2% and the IC50 was 336 nM.

For `CN1CCC(NC(=O)c2cc(C(C)(C)C)nc(C(C)(C)C)c2)(C(=O)NCc2ccccc2)CC1` [Compound 97, N-(4-(benzylcarbamoyl)-1-methylpiperidin-4-yl)-2,6-di-tert-butylisonicotinamide], the inhibition at 10 µM was determined as 76%, the inhibition at 30 µM was determined as 90.6% and the IC50 is 1070 nM.

In the case of `Cc1cc(CNC(=O)C2(NC(=O)c3cc(C(C)(C)C)c(O)c(C(C)(C)C)c3)CC2)nn1C` [Compound 2, 3,5-di-tert-butyl-N-(1-((1,5-dimethyl-1H-pyrazol-3-yl)methylcarbamoyl)cyclopropyl)-4-hydroxybenzamide], the inhibition at 10 µM was 99%, the inhibition at 30 µM was 104% and the IC50 amounted to 1410 nM.

For `COc1c(C(C)(C)C)cc(C(=O)NC2(C(=O)N3CCOCC3)CCCCC2)cc1C(C)(C)C` [Compound 29, 3,5-di-tert-butyl-4-methoxy-N-(1-(morpholine-4-carbonyl)cyclohexyl)benzamide], the inhibition at 10 µM was determined as 85.8%, the inhibition at 30 µM came to 90.5% and the IC50 came out at 67.6 nM.

Regarding `CN(C)c1ccc(CNC(=O)C2(NC(=O)c3cc(C(C)(C)C)cc(C(C)(C)C)c3)CCCCC2)cc1` [Compound 48, 3,5-di-tert-butyl-N-(1-(4-(dimethylamino)benzylcarbamoyl)cyclohexyl)benzamide], the inhibition at 10 µM was found to be 88.7%, the inhibition at 30 µM is 90.3% and the IC50 is 371 nM.

In the case of `CC(C)(C)c1cc(C(=O)NC2(C(=O)NCc3ccccc3)CCCC2)cc(C(C)(C)C)n1` [Compound 95, N-(1-(benzylcarbamoyl)cyclopentyl)-2,6-di-tert-butylisonicotinamide], the inhibition at 10 µM amounted to 94.6%, the inhibition at 30 µM came to 101% and the IC50 came to 132 nM.

In the case of `CN(C)c1ccccc1CNC(=O)C1(NC(=O)c2cc(C(C)(C)C)nc(C(C)(C)C)c2)CCOCC1` [Compound 26, 2,6-di-tert-butyl-N-(4-(2-(dimethylamino)benzylcarbamoyl)tetrahydro-2H-pyran-4-yl)isonicotinamide], the inhibition at 10 µM was determined as 49%.

Consider `CC(C)(C)c1cc(C(=O)NC2(C(=O)NCc3ccc(Cl)cc3)CCCCC2)cc(C(C)(C)C)c1` [Compound 46, 3,5-di-tert-butyl-N-(1-(4-chlorobenzylcarbamoyl)cyclohexyl)benzamide], for which the inhibition at 10 µM worked out at 96.6%, the inhibition at 30 µM was determined as 97.9% and the IC50 is 77.9 nM.

One may read the IC50 as the point on the concentration scale where inhibition reaches its midpoint.

The record behind these values is US20090270394A1, “CYCLYLAMINE DERIVATIVES AS CALCIUM CHANNEL BLOCKERS” (priority 2008, published 2009).
